Source: patent publication EP4682145A1, “BENZOHETEROCYCLIC COMPOUND, AND PREPARATION METHOD THEREFOR AND USE THEREOF” (Cascade Pharmaceuticals, Inc., priority 2023, dated 2024)

Target: T1, human FFAR1 (GPR40) (Homo sapiens, UniProt O14842)
T1 construct: Flag; expressed in transfected cells; host or cells: HEK293T
Assay: NFAT-RE-based reporter gene activity assay (Dual-Glo luciferase) for GPR40 agonistic activity in co-transfected HEK293T cells
Type: cell-based
Conditions: 4-hour treatment; for Efficacy (%): class symbols
Method in brief: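 HEK293T cells co-transfected with human FFAR1, NFAT-RE firefly luciferase and TK-Renilla plasmids; 24 h later treated 4 h with 10 half-log compound dilutions from 1 µM. Firefly/Renilla ratio normalised to DMSO; EC50 from four-parameter fit.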

T1 sequence (O14842 whole entry): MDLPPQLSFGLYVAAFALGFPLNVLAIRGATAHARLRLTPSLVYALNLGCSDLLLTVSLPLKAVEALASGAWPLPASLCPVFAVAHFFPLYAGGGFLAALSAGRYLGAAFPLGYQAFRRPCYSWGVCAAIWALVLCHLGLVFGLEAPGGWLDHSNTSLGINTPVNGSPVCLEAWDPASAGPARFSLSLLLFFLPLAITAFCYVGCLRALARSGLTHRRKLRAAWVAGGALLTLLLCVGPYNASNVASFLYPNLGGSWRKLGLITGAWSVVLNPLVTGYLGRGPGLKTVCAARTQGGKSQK

SMILES | EC50 [nM] | Efficacy (%)
O=C(O)C[C@H](c1ccc2c(C(=O)Nc3ccccc3F)c(C3CCN(c4ccc5c(c4)OCO5)CC3)oc2c1)C1CC1 [Compound 331] | 100 to 500 | †† (150 ≥ Efficacy (%) > 100)
COc1ccc(F)c(N2CCC(c3oc4cc(C(CC(=O)O)C5CC5)ccc4c3C(=O)NCC3CC3)CC2)c1 (stereo not shown) [Compound 309] | 100 to 500 | †† (150 ≥ Efficacy (%) > 100)
CC(C)(C)n1cc(-c2c(C3CCN(c4ccc5c(c4)OC(F)(F)O5)CC3)oc3cc([C@@H](CC(=O)O)C4CC4)ccc23)cn1 [Compound 96] | 100 to 500 | ††† (Efficacy (%) > 150)
COc1cccc(N2CCC(c3oc4cc([C@@H](CC(=O)O)C5CC5)ccc4c3C(=O)Nc3ccccc3C(F)(F)F)CC2)c1 [Compound 238] | 10 to 100 | ††† (Efficacy (%) > 150)
CC(C)(C)c1nnc(-c2c(C3CCN(c4ccc5c(c4)OCO5)CC3)oc3cc([C@@H](CC(=O)O)C4CC4)ccc23)o1 [Compound 143] | 10 to 100 | †† (150 ≥ Efficacy (%) > 100)
COc1ccc(F)c(N2CCC(c3oc4cc(C(CC(=O)O)C5CC5)ccc4c3-c3ccc(S(=O)(=O)C(C)C)cc3)CC2)c1 (stereo not shown) [Compound 183] | 100 to 500 | †† (150 ≥ Efficacy (%) > 100)
CCNC(=O)c1c(C2CCN(c3cc(OC)ccc3F)CC2)oc2cc(C(CC(=O)O)C3CC3)ccc12 (stereo not shown) [Compound 312] | 100 to 500 | † (100 ≥ Efficacy (%) > 50)
COc1cccc(N2CCC(c3oc4cc(C(CC(=O)O)C5CC5)ccc4c3C(=O)Nc3c(F)cc(F)cc3F)CC2)c1 (stereo not shown) [Compound 288] | 100 to 500 | †† (150 ≥ Efficacy (%) > 100)
COc1cccc(N2CCC(c3oc4cc([C@@H](CC(=O)O)C5CC5)ccc4c3C(=O)Nc3cc(C4CC4)ccc3Cl)CC2)c1 [Compound 279] | > 500 | †† (150 ≥ Efficacy (%) > 100)
COc1cccc(N2CCC(c3oc4cc([C@@H](CC(=O)O)C5CC5)ccc4c3-c3ccc4ccccc4n3)CC2)c1 [Compound 154] | 100 to 500 | ††† (Efficacy (%) > 150)
COc1cccc(N2CCC(c3oc4cc([C@@H](CC(=O)O)C5CC5)ccc4c3CNC(=O)C(C)(C)C)CC2)c1 [Compound 436] | > 500 | †† (150 ≥ Efficacy (%) > 100)
COc1cccc(N2CCC(c3oc4cc(C(CC(=O)O)C5CC5)ccc4c3C(=O)Nc3cccc(N(C)C)c3)CC2)c1 (stereo not shown) [Compound 246] | 100 to 500 | †† (150 ≥ Efficacy (%) > 100)
COc1cccc(N2CCC(c3oc4cc([C@@H](CC(=O)O)C5CC5)ccc4c3CNCC(C)(C)C)CC2)c1 [Compound 435] | 10 to 100 | †† (150 ≥ Efficacy (%) > 100)
COc1ccc(F)c(N2CCC(c3oc4cc([C@@H](CC(=O)O)C5CC5)ccc4c3CC=C(C)C)CC2)c1 [Compound 372] | 100 to 500 | †† (150 ≥ Efficacy (%) > 100)
COc1cccc(N2CCC(c3oc4cc(C(CC(=O)O)C5CC5)ccc4c3C(=O)Nc3cccc(C#N)c3)CC2)c1 (stereo not shown) [Compound 249] | 100 to 500 | †† (150 ≥ Efficacy (%) > 100)
COc1cccc(N2CCC(c3oc4cc([C@@H](CC(=O)O)C5CC5)ccc4c3C(=O)Nc3cc(C)ccc3Br)CC2)c1 [Compound 273] | ≤ 10 | †† (150 ≥ Efficacy (%) > 100)
COc1ccc(C#N)c(N2CCC(c3oc4cc(C(CC(=O)O)C5CC5)ccc4c3-c3cnn(C(C)(C)C)c3)CC2)c1 (stereo not shown) [Compound 44] | 100 to 500 | †† (150 ≥ Efficacy (%) > 100)
O=C(O)C[C@H](c1ccc2c(C(=O)Nc3cc(C(F)(F)F)ccc3Cl)c(C3CCN(c4ccc5c(c4)OCO5)CC3)oc2c1)C1CC1 [Compound 335] | ≤ 10 | †† (150 ≥ Efficacy (%) > 100)

SMILES | EC50 [nM] | Efficacy (%)
CCc1ccc(Cl)c(NC(=O)c2c(C3CCN(c4cc(OC)ccc4F)CC3)oc3cc([C@@H](CC(=O)O)C4CC4)ccc23)c1 [Compound 339] | ≤ 10 | †† (150 ≥ Efficacy (%) > 100)
COc1cccc(N2CCC(c3oc4cc([C@@H](CC(=O)O)C5CC5)ccc4c3C(=O)Nc3cc(N4CCCCC4)ccc3Cl)CC2)c1 [Compound 284] | ≤ 10 | †† (150 ≥ Efficacy (%) > 100)
COc1cccc(N2CCC(c3oc4cc(C(CC(=O)O)C5CC5)ccc4c3-c3nnc(C(C)(C)CC4CCCCC4)o3)CC2)c1 (stereo not shown) [Compound 135] | 10 to 100 | †† (150 ≥ Efficacy (%) > 100)
COc1ccc(F)c(N2CCC(c3oc4cc(C(CC(=O)O)C5CC5)ccc4c3-c3cccc(N(C(C)=O)C(C)C)c3)CC2)c1 (stereo not shown) [Compound 191] | 100 to 500 | †† (150 ≥ Efficacy (%) > 100)
CCC(CC(=O)O)c1ccc2c(-c3cccc(C(C)(C)C)c3)c(C3CCN(c4cc(OC)ccc4F)CC3)oc2c1 (stereo not shown) [Compound 233] | 100 to 500 | †† (150 ≥ Efficacy (%) > 100)
COc1ccc(F)c(N2CCC(c3oc4cc(C(CC(=O)O)C5CC5)ccc4c3CCC(C)(C)O)CC2)c1 (stereo not shown) [Compound 390] | 100 to 500 | †† (150 ≥ Efficacy (%) > 100)
COc1cccc(N2CCC(c3oc4cc(C(CC(=O)O)C5CC5)ccc4c3C(=O)Nc3ncc(C(C)(C)C)s3)CC2)c1 (stereo not shown) [Compound 299] | 100 to 500 | †† (150 ≥ Efficacy (%) > 100)
CCOC(C)c1c(C2CCN(c3cccc(OC)c3)CC2)oc2cc([C@@H](CC(=O)O)C3CC3)ccc12 (stereo partly shown) [Compound 407] | 100 to 500 | ††† (Efficacy (%) > 150)
COc1ccc(F)c(N2CCC(c3oc4cc(C(CC(=O)O)C5CC5)ccc4c3-c3cccc(C)c3)CC2)c1 (stereo not shown) [Compound 157] | 100 to 500 | ††† (Efficacy (%) > 150)
COc1cccc(N2CCC(c3oc4cc([C@@H](CC(=O)O)C5CC5)ccc4c3C(=O)Nc3cc([N+](=O)[O-])ccc3Cl)CC2)c1 [Compound 276] | 10 to 100 | †† (150 ≥ Efficacy (%) > 100)
COc1ccc(F)c(N2CCC(c3oc4cc(C(CC(=O)O)C5CC5)ccc4c3-c3ccccc3)CC2)c1 (stereo not shown) [Compound 156] | 100 to 500 | †† (150 ≥ Efficacy (%) > 100)
COc1cccc(N2CCC(c3oc4cc([C@@H](CC(=O)O)C5CC5)ccc4c3C(C)OCc3cccs3)CC2)c1 (stereo partly shown) [Compound 421] | 100 to 500 | ††† (Efficacy (%) > 150)
COc1cccc(N2CCC(c3oc4cc(C(CC(=O)O)C5CC5)ccc4c3C(=O)Nc3cc(C(C)(C)C)on3)CC2)c1 (stereo not shown) [Compound 300] | 100 to 500 | †† (150 ≥ Efficacy (%) > 100)
COc1cccc(N2CCC(c3oc4cc([C@@H](CC(=O)O)C5CC5)ccc4c3-c3cnc(C(C)C)s3)CC2)c1 [Compound 102] | 10 to 100 | †† (150 ≥ Efficacy (%) > 100)
CCCCC(C)c1c(C2CCN(c3cccc(OC)c3)CC2)oc2cc([C@@H](CC(=O)O)C3CC3)ccc12 (stereo partly shown) [Compound 384] | 100 to 500 | †† (150 ≥ Efficacy (%) > 100)
COc1cccc(N2CCC(c3oc4cc(C(CC(=O)O)C5CC5)ccc4c3C(=O)NCc3ccccc3)CC2)c1 (stereo not shown) [Compound 355] | 100 to 500 | †† (150 ≥ Efficacy (%) > 100)
COc1ccc(F)c(N2CCC(c3oc4cc(C(CC(=O)O)C5CC5)ccc4c3C(=O)Nc3ccccc3C)CC2)c1 (stereo not shown) [Compound 319] | 100 to 500 | †† (150 ≥ Efficacy (%) > 100)
